Experimental data taken from patent publication US10577317B2, “Crystal forms and production methods thereof” (Sunovion Pharmaceuticals Inc., priority 2017, dated 2020).
Read-outs that look alike come from different tables or passages of the source.

What was measured:
Format in all cases: physicochemical
[1] = Solid form stability on storage at 25° C. and 60% relative humidity; details: after 4 months at 25° C. and 60% relative humidity (RH)
[2] = Solubility (mg/mL) in water, buffers, simulated fluids and organic solvents (Table 1)
[3] = DVS water sorption isotherm, 25° C. scanned over 0 to 95% relative humidity (hygroscopicity)
Description: In various embodiments, the hygroscopicity of crystal forms of racemic amisulpride, enantiomeric amisulpride, and enantiomeric amisulpride solvates are characterized by dynamic vapor sorption (DVS). DVS is a gravimetric technique that measures how much of a solvent is absorbed by a sample by varying the vapor concentration surrounding the sample (e.g., relative humidity) and measuring the change in mass. In the present application, DVS is used to generate water sorption isotherms, which represent the equilibrium amount of vapor sorbed as a function of steady state relative vapor pressure at a constant temperature.

[4] = DVS, 25° C., 0 to 95% relative humidity

solubility ([2]; aqueous buffer, 0.05M Acetate Buffer, solution pH 4.5, read-out: Solubility (mg/mL): 0.05M Acetate Buffer): > 100 mg/mL
solubility ([2]; pH 1.1, Simulated Gastric Fluid (no enzyme), pH adjusted to 1.1 (Form A), 1.2 (Form A′), read-out: Solubility (mg/mL): Simulated Gastric Fluid (no enzyme)): > 100 mg/mL
solubility ([2]; pH 6.7, fassgf or other biorelevant, Simulated Intestinal Fluid (no enzyme), pH adjusted to 6.7 (Form A), 6.9 (Form A′), read-out: Solubility (mg/mL): Simulated Intestinal Fluid (no enzyme)): > 100 mg/mL
maximum mass change in water sorption isotherms [3, 4]: 0.183%
average maximum mass change ([3]; DVS, average over the samples of Tables 6A-6C (Form A′) or 6D-6E (Form A)): about 0.17%
Change Mass ([3]; FIG. 2D, RH 1.28 %, elapse time 173.0 min): 0.000 wt %
Change Mass ([3]; FIG. 2D, RH 5.03 %, elapse time 515.4 min): 0.004 wt %
Change Mass ([3]; FIG. 2D, RH 5.05 %, elapse time 854.6 min): 0.008 wt %
Change Mass ([3]; FIG. 2D, RH 5.19 %, elapse time 181.6 min): 0.004 wt %
Change Mass ([3]; FIG. 2D, RH 9.87 %, elapse time 523.4 min): 0.008 wt %
Change Mass ([3]; FIG. 2D, RH 10.07 %, elapse time 189.1 min): 0.010 wt %
Change Mass ([3]; FIG. 2D, RH 10.08 %, elapse time 507.4 min): 0.010 wt %
Change Mass ([3]; FIG. 2D, RH 10.10 %, elapse time 846.6 min): 0.014 wt %
Change Mass ([3]; FIG. 2D, RH 14.89 %, elapse time 531.4 min): 0.014 wt %
Change Mass ([3]; FIG. 2D, RH 14.91 %, elapse time 196.6 min): 0.017 wt %
Change Mass ([3]; FIG. 2D, RH 15.10 %, elapse time 499.4 min): 0.017 wt %
Change Mass ([3]; FIG. 2D, RH 15.15 %, elapse time 838.6 min): 0.021 wt %
Change Mass ([3]; FIG. 2D, RH 19.83 %, elapse time 204.6 min): 0.024 wt %
Change Mass ([3]; FIG. 2D, RH 19.90 %, elapse time 539.4 min): 0.020 wt %
Change Mass ([3]; FIG. 2D, RH 20.10 %, elapse time 491.4 min): 0.023 wt %
Change Mass ([3]; FIG. 2D, RH 20.13 %, elapse time 830.5 min): 0.028 wt %
Change Mass ([3]; FIG. 2D, RH 24.87 %, elapse time 548.4 min): 0.027 wt %
Change Mass ([3]; FIG. 2D, RH 24.89 %, elapse time 483.4 min): 0.029 wt %
Change Mass ([3]; FIG. 2D, RH 24.93 %, elapse time 822.5 min): 0.033 wt %
Change Mass ([3]; FIG. 2D, RH 24.98 %, elapse time 213.7 min): 0.031 wt %
Change Mass ([3]; FIG. 2D, RH 29.88 %, elapse time 222.7 min): 0.039 wt %
Change Mass ([3]; FIG. 2D, RH 29.89 %, elapse time 557.4 min): 0.034 wt %
Change Mass ([3]; FIG. 2D, RH 30.13 %, elapse time 475.9 min): 0.036 wt %
Change Mass ([3]; FIG. 2D, RH 30.15 %, elapse time 815.0 min): 0.040 wt %
Change Mass ([3]; FIG. 2D, RH 34.83 %, elapse time 566.4 min): 0.042 wt %
Change Mass ([3]; FIG. 2D, RH 34.93 %, elapse time 467.4 min): 0.043 wt %
Change Mass ([3]; FIG. 2D, RH 34.94 %, elapse time 806.5 min): 0.046 wt %
Change Mass ([3]; FIG. 2D, RH 34.97 %, elapse time 231.7 min): 0.046 wt %
Change Mass ([3]; FIG. 2D, RH 39.80 %, elapse time 240.7 min): 0.054 wt %
Change Mass ([3]; FIG. 2D, RH 39.88 %, elapse time 457.4 min): 0.050 wt %
Change Mass ([3]; FIG. 2D, RH 39.95 %, elapse time 796.5 min): 0.053 wt %
Change Mass ([3]; FIG. 2D, RH 39.99 %, elapse time 577.4 min): 0.049 wt %
Change Mass ([3]; FIG. 2D, RH 44.82 %, elapse time 249.7 min): 0.061 wt %
Change Mass ([3]; FIG. 2D, RH 44.93 %, elapse time 586.4 min): 0.056 wt %
Change Mass ([3]; FIG. 2D, RH 45.05 %, elapse time 786.5 min): 0.060 wt %
Change Mass ([3]; FIG. 2D, RH 45.17 %, elapse time 447.9 min): 0.058 wt %
Change Mass ([3]; FIG. 2D, RH 49.96 %, elapse time 597.5 min): 0.063 wt %
Change Mass ([3]; FIG. 2D, RH 49.98 %, elapse time 258.7 min): 0.068 wt %
Change Mass ([3]; FIG. 2D, RH 50.04 %, elapse time 775.5 min): 0.067 wt %
Change Mass ([3]; FIG. 2D, RH 50.07 %, elapse time 438.8 min): 0.065 wt %
Change Mass ([3]; FIG. 2D, RH 54.98 %, elapse time 606.5 min): 0.070 wt %
Change Mass ([3]; FIG. 2D, RH 55.01 %, elapse time 269.7 min): 0.076 wt %
Change Mass ([3]; FIG. 2D, RH 55.07 %, elapse time 427.8 min): 0.073 wt %
Change Mass ([3]; FIG. 2D, RH 55.14 %, elapse time 764.5 min): 0.074 wt %
Change Mass ([3]; FIG. 2D, RH 59.95 %, elapse time 278.7 min): 0.084 wt %
Change Mass ([3]; FIG. 2D, RH 59.95 %, elapse time 617.5 min): 0.078 wt %
Change Mass ([3]; FIG. 2D, RH 60.08 %, elapse time 416.8 min): 0.081 wt %
Change Mass ([3]; FIG. 2D, RH 60.16 %, elapse time 753.5 min): 0.082 wt %
Change Mass ([3]; FIG. 2D, RH 64.91 %, elapse time 628.5 min): 0.086 wt %
Change Mass ([3]; FIG. 2D, RH 64.92 %, elapse time 289.7 min): 0.091 wt %
Change Mass ([3]; FIG. 2D, RH 65.11 %, elapse time 742.5 min): 0.090 wt %
Change Mass ([3]; FIG. 2D, RH 65.16 %, elapse time 405.8 min): 0.090 wt %
Change Mass ([3]; FIG. 2D, RH 69.88 %, elapse time 300.7 min): 0.099 wt %
Change Mass ([3]; FIG. 2D, RH 69.98 %, elapse time 639.5 min): 0.094 wt %
Change Mass ([3]; FIG. 2D, RH 70.09 %, elapse time 394.8 min): 0.099 wt %
Change Mass ([3]; FIG. 2D, RH 70.18 %, elapse time 731.5 min): 0.098 wt %
Change Mass ([3]; FIG. 2D, RH 74.63 %, elapse time 648.5 min): 0.103 wt %
Change Mass ([3]; FIG. 2D, RH 74.64 %, elapse time 309.7 min): 0.108 wt %
Change Mass ([3]; FIG. 2D, RH 75.39 %, elapse time 383.8 min): 0.109 wt %
Change Mass ([3]; FIG. 2D, RH 75.48 %, elapse time 720.5 min): 0.109 wt %
Change Mass ([3]; FIG. 2D, RH 79.56 %, elapse time 318.7 min): 0.119 wt %
Change Mass ([3]; FIG. 2D, RH 79.66 %, elapse time 657.5 min): 0.113 wt %
Change Mass ([3]; FIG. 2D, RH 80.45 %, elapse time 374.8 min): 0.124 wt %
Change Mass ([3]; FIG. 2D, RH 80.45 %, elapse time 711.5 min): 0.123 wt %
Change Mass ([3]; FIG. 2D, RH 84.45 %, elapse time 666.5 min): 0.128 wt %
Change Mass ([3]; FIG. 2D, RH 84.52 %, elapse time 327.8 min): 0.134 wt %
Change Mass ([3]; FIG. 2D, RH 85.43 %, elapse time 702.5 min): 0.152 wt %
Change Mass ([3]; FIG. 2D, RH 85.47 %, elapse time 365.8 min): 0.155 wt %
Change Mass ([3]; FIG. 2D, RH 89.51 %, elapse time 336.8 min): 0.152 wt %
Change Mass ([3]; FIG. 2D, RH 89.63 %, elapse time 675.5 min): 0.147 wt %
Change Mass ([3]; FIG. 2D, RH 90.09 %, elapse time 356.8 min): 0.168 wt %
Change Mass ([3]; FIG. 2D, RH 90.20 %, elapse time 693.5 min): 0.164 wt %
Change Mass ([3]; FIG. 2D, RH 94.80 %, elapse time 347.8 min): 0.183 wt %
Change Mass ([3]; FIG. 2D, RH 94.89 %, elapse time 684.5 min): 0.175 wt %
Change Mass ([3]; FIG. 2E, RH 19.69 %, elapse time 383.8 min): 0.012 wt %
Change Mass ([3]; FIG. 2E, RH 24.95 %, elapse time 392.9 min): 0.018 wt %
Change Mass ([3]; FIG. 2E, RH 29.81 %, elapse time 401.9 min): 0.024 wt %
Change Mass ([3]; FIG. 2E, RH 34.97 %, elapse time 412.9 min): 0.032 wt %
Change Mass ([3]; FIG. 2E, RH 39.81 %, elapse time 421.9 min): 0.038 wt %
Change Mass ([3]; FIG. 2E, RH 44.97 %, elapse time 432.9 min): 0.044 wt %
Change Mass ([3]; FIG. 2E, RH 45.03 %, elapse time 627.0 min): 0.046 wt %
Change Mass ([3]; FIG. 2E, RH 49.81 %, elapse time 441.9 min): 0.051 wt %
Change Mass ([3]; FIG. 2E, RH 50.10 %, elapse time 618.0 min): 0.052 wt %
Change Mass ([3]; FIG. 2E, RH 54.81 %, elapse time 450.9 min): 0.059 wt %
Change Mass ([3]; FIG. 2E, RH 55.04 %, elapse time 609.0 min): 0.059 wt %
Change Mass ([3]; FIG. 2E, RH 59.91 %, elapse time 461.9 min): 0.066 wt %
Change Mass ([3]; FIG. 2E, RH 60.10 %, elapse time 598.0 min): 0.067 wt %
Change Mass ([3]; FIG. 2E, RH 64.88 %, elapse time 472.9 min): 0.074 wt %
Change Mass ([3]; FIG. 2E, RH 65.19 %, elapse time 586.9 min): 0.075 wt %
Change Mass ([3]; FIG. 2E, RH 69.81 %, elapse time 483.9 min): 0.082 wt %
Change Mass ([3]; FIG. 2E, RH 70.16 %, elapse time 575.9 min): 0.083 wt %
Change Mass ([3]; FIG. 2E, RH 74.59 %, elapse time 492.9 min): 0.090 wt %
Change Mass ([3]; FIG. 2E, RH 75.44 %, elapse time 564.9 min): 0.092 wt %
Change Mass ([3]; FIG. 2E, RH 79.63 %, elapse time 501.9 min): 0.100 wt %
Change Mass ([3]; FIG. 2E, RH 80.52 %, elapse time 555.9 min): 0.105 wt %
Change Mass ([3]; FIG. 2E, RH 84.55 %, elapse time 510.9 min): 0.112 wt %
Change Mass ([3]; FIG. 2E, RH 85.39 %, elapse time 546.9 min): 0.126 wt %
Change Mass ([3]; FIG. 2E, RH 89.85 %, elapse time 519.9 min): 0.127 wt %
Change Mass ([3]; FIG. 2E, RH 90.10 %, elapse time 537.9 min): 0.137 wt %
Change Mass ([3]; FIG. 2E, RH 94.52 %, elapse time 528.9 min): 0.149 wt %
SMILES: CCN1CCC[C@@H]1CNC(=O)c1cc(S(=O)(=O)CC)c(N)cc1OC [(R)-amisulpride Form A, R-4-Amino-N-[(1-ethyl-2-pyrrolidinyl)methyl]-5-(ethylsulfonyl)-2-methoxybenzamide]
thermodynamic stability of crystal form (conversion to other polymorphs or amorphous form) [1]: not substantially converting to other polymorphs or amorphous form
hygroscopicity [3, 4]: substantially non-hygroscopic (less than a 1% maximum mass change in water sorption isotherms, at 25 °C scanned over 0 to 95% relative humidity)
